In one experiment the test system is diabetic polyneuropathy. Conditions: cited from earlier work.
The test system of the next experiment is uremic neuropathy. The settings on record: cited from earlier work.
Experiment [1] relates to cryptogenic neuropathy. Put plainly: Case reports: patients with cryptogenic neuropathy treated with R-LA. The format is in vivo, human. Here is the method:
A patient with cryptogenic neuropathy was treated with an agent according to the present invention. For that purpose a daily oral dose of 50 mg of R-LA (s.d.) was given over a time period of 8 weeks in a customary multivitamin presentation form. The disease is presented by a loss of sensory perception in the feet and a severe impairment of perspiration.
A patient with cryptogenic neuropathy was treated with an agent according to the present invention. For that purpose a daily oral dose of 50 mg of R-LA (s.d.) was given over a time period of 12 weeks.
A patient with cryptogenic neuropathy was treated with an agent according to the present invention. For that purpose 50 mg of R-LA (s.d.) in an oral multivitamin preparation together with γ-linolenic acid was given. The administration was at first 2 times a day for 6 weeks and then 1 time a day. The lost sensation in the tips of the fingers and toes (Semmes Weinstein monofilament) recovered after 4 weeks.
A patient with cryptogenic neuropathy was treated with an agent according to the present invention. For that purpose a daily oral dose of 100 mg of R-LA as Na salt was given over a time period of 8 weeks. The incontinence and also the control over the bladder were improved after 3 weeks.
A patient with cryptogenic neuropathy was treated with an agent according to the present invention. For that purpose at first a dose of 300 mg of R-LA (Na salt) was given 1 time a day over a time period of 2 weeks and then a dose of 100 mg was given 1 time a day over a time period of 6 weeks. Due to inconsequent taking of the dose on average the agent was only administered every second day. The dryness of the eyes has not changed during the first 3 weeks, but after 4 weeks the use of eye drops was reduced.
A patient with cryptogenic neuropathy was treated with an agent according to the present invention. For that purpose at first a daily oral dose of 100 mg of R-LA was given over a time period of one week and then a reduction to a dose of 50 mg for 6 weeks with continuous co-medication of gabapentin followed.
A patient with cryptogenic neuropathy was treated with an agent according to the present invention. For that purpose at first a daily oral dose of 100 mg of R-LA was given over a time period of two weeks. Then a reduction to a dose of 50 mg followed which was continued over 3 weeks. Subsequently the treatment was continued with the administration of 25 mg over further 3 weeks. […] Sharp pain which occurred occasionally was unchanged.
A patient with cryptogenic neuropathy was treated with an agent according to the present invention. For that purpose at first a daily oral dose of 100 mg of R-LA was given over a time period of four weeks. Then an anti-oxidative multivitamin preparation together with 50 mg of R-LA was given over 4 weeks.
A patient with cryptogenic neuropathy was treated with an agent according to the present invention. For that purpose at first a daily oral dose of 50 mg of R-LA was given over a time period of six weeks. Then an anti-oxidative multivitamin preparation without R-LA was given orally over 4 weeks. The patient suffered from numbness and the loss of sensory perception in the lower limbs. Due to a possible immunologic background ibuprofen was given as a long-term medication. […] The heart pains during stair climbing disappeared.
A patient with cryptogenic neuropathy was treated with an agent according to the present invention. For that purpose a daily dose of 300 mg of R-LA was given over a time period of four weeks together with a continued administration of a vitamin B-combination medication. […] Stomach pain and feeling of abdominal fullness were improved at the end of that period.
A patient with cryptogenic neuropathy was treated with an agent according to the present invention. For that purpose a daily oral dose of 400 mg of R-LA (K salt) was given over a time period of one week. […] 3 months later a formulation of 100 mg (Na salt) was given. […]

Experiment [2] deals with cryptogenic neuropathy. Conditions: in vivo; cited from earlier work.
Where [3] appears, read: Example 11, 400 mg daily oral (K salt) over one week.
Where [4] appears, read: Example 1, 50 mg daily oral (s.d.) in multivitamin presentation form, after 8 weeks.
Where [5] appears, read: Example 9, 50 mg daily oral over six weeks, ibuprofen long-term medication.

This is an account of results in patent US8722013B2, “Use of R(+)-alpha-lipoic acid for cryptogenic neuropathy” (Encrypta GmbH, priority 2007, dated 2014).

Counter-ions that a name gives are not always drawn.

On to `O=C(O)CCCCC1CCSS1` (racemic) [rac-LA, 5-(1,2-dithiolan-3-yl)valeric acid], for which the “efficacy in controlled clinical trials” value in the experiment on diabetic polyneuropathy (human, in vivo) is “negative”. For the same molecule, the “efficacy in first short-time pilot study (ALADIN Study)” value in the experiment with diabetic polyneuropathy (i.v. treatment, 3-week multicentre randomized controlled trial) is “verified the historic impressions of the efficacy”. Besides, the neuropathic deficits result in the experiment with diabetic polyneuropathy (oral long-term therapy) is on record as “appeared to deteriorate”. For the same molecule, the “efficacy in pivotal placebo-controlled double-blind multicentre trials (ALADIN II, ALADIN III)” value with diabetic polyneuropathy (short-term use (i.v.) or long-term use (p.o.)) is “could not be reproduced”. Also, the “result of first clinical trial” value in the experiment on uremic neuropathy was “negative results”.

For `O=C(O)CCCC[C@@H]1CCSS1` [R-LA (K salt)], in the experiment on cryptogenic neuropathy [1] (setting [3]), the “hyperhidrosis at the face” value is recorded as “not disappeared” and the “sensory perception in the lower limbs” value was “improved from severe to moderate”.

`O=C(O)CCCC[C@@H]1CCSS1` [R-LA (Na salt)]: in the experiment on cryptogenic neuropathy [1] (Example 4, 100 mg daily oral as Na salt, after 3 weeks), the “incontinence and control over the bladder” value is “improved”. In addition, the chronic obstipation entry in the experiment on cryptogenic neuropathy [1] (Example 4, 100 mg daily oral as Na salt, after 5 weeks) was “no longer a problem”. Also, the stool frequency with cryptogenic neuropathy [1] (Example 4, 100 mg daily oral as Na salt, after 5 weeks, 2 to 3 times a week before) is recorded as 5 times a week. In addition, the “dryness of the eyes” value with cryptogenic neuropathy [1] (Example 5, 300 mg 1 time a day for 2 weeks, then 100 mg for 6 weeks (on average taken every second day), first 3 weeks) is given as “not changed”. The “feeling of burning in the feet” value in the experiment with cryptogenic neuropathy [1] (Example 5, 300 mg for 2 weeks, then 100 mg, after 3 weeks) is “reduced after 3 weeks (from severe to moderate)”; in the experiment with cryptogenic neuropathy [1] (Example 5, during the weeks following week 3), “unchanged”. Also, the “use of eye drops” value in the experiment on cryptogenic neuropathy [1] (Example 5, 300 mg for 2 weeks, then 100 mg, after 4 weeks) is “reduced”.

As to `O=C(O)CCCC[C@@H]1CCSS1` [R-LA, (R)-5-(1,2-dithiolan-3-yl)valeric acid], in the experiment with cryptogenic neuropathy [1] (setting [4]), the perspiration entry is listed as “moderately improved”. In addition, in the experiment with cryptogenic neuropathy [1] (setting [4]), the “sensory perception in the feet” value is on record as “moderately improved”. For the same molecule, in the experiment with cryptogenic neuropathy [1] (Example 2, 50 mg daily oral (s.d.) over 12 weeks), the “feeling of burning and tingling in the feet and hands” value is “improved moderately”. The “symptoms after the termination of the treatment” value with cryptogenic neuropathy [1] (Example 2, after 12 weeks of 50 mg daily oral) is “became worse again”. The “lost sensation in the tips of the fingers and toes (Semmes Weinstein monofilament)” value in the experiment with cryptogenic neuropathy [1] (Example 3, 50 mg in oral multivitamin preparation with γ-linolenic acid, 2 times a day, after 4 weeks) was “recovered”. Besides, the “function improvement on halving of the dose” value in the experiment with cryptogenic neuropathy [1] (Example 3, 2 times a day for 6 weeks, then 1 time a day) is recorded as “not influenced”. Besides, in the experiment with cryptogenic neuropathy [1] (Example 6, 100 mg daily oral for one week, then 50 mg for 6 weeks, co-medication of gabapentin), the “neurological pain in the feet” value is “unchanged”. For the same molecule, in the experiment with cryptogenic neuropathy [1] (Example 6, 100 mg for one week, then 50 mg, gabapentin co-medication, after 3 weeks, not perceived at first), the “perception of pain stimulus with a needle at the feet” value is reported as “perceived moderately”. The “feeling of burning in the feet” value with cryptogenic neuropathy [1] (Example 7, 100 mg daily oral for two weeks, then 50 mg, after 3 weeks) is recorded as “improved from severe to moderate”; with cryptogenic neuropathy [1] (Example 7, 100 mg for two weeks, then 50 mg for 3 weeks, after 5 weeks), “disappeared completely”; with cryptogenic neuropathy [1] (Example 8, 100 mg daily oral, after 2 weeks) it was “improved from severe to moderate”; in the experiment with cryptogenic neuropathy [1] (Example 8, 100 mg for four weeks, then anti-oxidative multivitamin preparation with 50 mg, after 6 weeks), “became worse again”. In addition, in the experiment on cryptogenic neuropathy [1] (Example 7, 100 mg for 2 weeks, 50 mg for 3 weeks, 25 mg for 3 weeks), the “sharp pain which occurred occasionally” value is “unchanged”. For the same molecule, in the experiment on cryptogenic neuropathy [1] (setting [5]), the “heart pains during stair climbing” value was “disappeared”. Moreover, the numbness entry in the experiment on cryptogenic neuropathy [1] (setting [5]) is recorded as “unchanged”. In addition, the “sensory perception in the lower limbs” value with cryptogenic neuropathy [1] (Example 9, 50 mg daily oral, ibuprofen long-term medication, after 3 weeks, then stable) is “improved from severe to moderate”. Besides, in the experiment with cryptogenic neuropathy [1] (Example 9, 3 weeks after the termination of the administration), the “sensory perception after termination of R-LA” value is “became worse again”. Moreover, the “perception of pain stimulus at the feet by means of a sharp needle” value with cryptogenic neuropathy [1] (Example 10, 300 mg daily with vitamin B-combination medication, after 2 weeks) is recorded as “perceived again”. Also, the “stomach pain and feeling of abdominal fullness” value with cryptogenic neuropathy [1] (Example 10, 300 mg daily with vitamin B-combination medication, at the end of four weeks) is “improved”. Besides, the “dryness at the feet” value with cryptogenic neuropathy [1] (Example 12, 100 mg twice a day, after 2 weeks) is “improved”. In the experiment on cryptogenic neuropathy [1] (Example 12, 100 mg twice a day, after 3 weeks), the “dryness at the hands” value is on record as “improved”.

With `C[C@]12CCC(=O)C=C1CC[C@@H]1[C@@H]2C(=O)C[C@@]2(C)[C@H]1CC[C@]2(O)C(=O)CO` [cortisone], in the experiment with cryptogenic neuropathy [2], the “outcome of therapy of cryptogenic neuropathy” value is on record as “unsuccessful”.
